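A five-concentration, 48-hour dose response in 96-well plates underlies each endpoint, interpolated linearly between surrounding concentrations. GI50 is the concentration that inhibits growth by half.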 The source made the active and inactive calls. Rule as the data show it: active = GI50 up to about 1.1 µM and inactive = higher.
Experiments:
Assay in all cases: NCI tumour cell line growth inhibition, 48 h
[1] = system: BT-549
[2] = system: PC-3
[3] = system: TK-10
[4] = system: SW-620
[5] = system: CCRF-CEM
[6] = system: SR
[7] = system: A498
[8] = system: IGROV-1
[9] = system: HCT-15
[10] = system: SK-MEL-2
[11] = system: SK-MEL-5
[12] = system: DU-145
[13] = system: T47D
[14] = system: UACC-62
[15] = system: SK-OV-3
[16] = system: LOX IMVI
[17] = system: KM12
[18] = system: RXF 393
[19] = system: UACC-257
[20] = system: HOP-92

Row | SMILES | GI50 [1] | GI50 [2] | GI50 [3] | GI50 [4] | GI50 [5] | GI50 [6] | GI50 [7] | GI50 [8] | GI50 [9] | GI50 [10] | GI50 [11] | GI50 [12] | GI50 [13] | GI50 [14] | GI50 [15] | GI50 [16] | GI50 [17] | GI50 [18] | GI50 [19] | GI50 [20]
1 | O=C1c2ccccc2C(=O)c2c1oc(=O)c1ccccc21 | 4.51 µM (inactive) | 5.37 µM (inactive) | 8.89 µM (inactive) | 2.08 µM (inactive) | 1.93 µM (inactive) | 3.75 µM (inactive) | 9.82 µM (inactive) | 3.73 µM (inactive) | 3.26 µM | 4.84 µM (inactive) | 1.29 µM (inactive) | 5.46 µM (inactive) | 5.47 µM (inactive) | 4 µM (inactive) | 9.25 µM (inactive) | 3.65 µM (inactive) | 5.51 µM (inactive) | 4.48 µM (inactive) | 3.22 µM (inactive) | 5.16 µM (inactive)
2 | O=c1ccc2[n+]([O-])c3ccc(O)cc3oc-2c1 [RESAZURIN] | 10.7 µM (inactive) | 7.23 µM (inactive) | 36 µM (inactive) | 11.5 µM (inactive) | 30 µM (inactive) | 15.3 µM (inactive) | 39.2 µM (inactive) | 25.2 µM (inactive) | 5.15 µM | 10 µM (inactive) | 2.72 µM (inactive) | 15.9 µM (inactive) | 56.4 µM (inactive) | 2.59 µM (inactive) | 66.5 µM (inactive) | 3.44 µM (inactive) | 5.19 µM (inactive) | 37 µM (inactive) | 11.2 µM (inactive) | > 75.2 µM (inactive)

Reference: ChEMBL document CHEMBL1201862, “PubChem BioAssay data set” (2004)
